Here are results for 25 molecules from patent US20140309275A1, “Sphingosine Analogs, Compositions, and Methods Related Thereto” (Emory University, priority 2011, published 2014).

Common to all, as to assay type: cell-based
Test [1] relates to PC-3 prostate cancer cells. The test can be described thus: WST-1 cytotoxicity assay, PC-3. Conditions: 24 h treatment. The method, then: (§1) Prostate cancer cells were treated with enigmol or analogue for 24 h, and cytotoxicity was assessed by WST-1 assay. cLogPs were calculated with QuikProp on Maestro.
For orientation: Formazan colour is commonly taken as a measure of viable cells.

The test system of test [2] is LNCaP prostate cancer cells. The test can be described thus: WST-1 cytotoxicity assay, LNCaP. Conditions: Homo sapiens, 24 h treatment. The method, then:
as §1

Test [3] deals with P. falciparum chloroquine susceptible (CQ-S) D6 strain. As to the kind of experiment: [3H]-labeled hypoxanthine uptake assay, P. falciparum D6. The settings on record: for IC50: Plasmodium falciparum; for IC50 D6: Table 1. An excerpt:
(§2) The [^3H]-labeled hypoxanthine uptake method was utilized to assay the effectiveness of our sphingoid base analogs in vitro for their ability to inhibit the growth and replication of malaria parasites in RBCs. […] The simian malaria parasite P. knowlesi has also been recognized as a human pathogen of public health concern in South East Asia, and it can be cultured effectively in vitro. This species was therefore included to probe the potential of multi-species efficacy within this compound class.
(§3) Cryopreserved iRBCs were provided by Dr. John W. Barnwell from the Centers for Disease Control and Prevention and maintained in in vitro culture as described in Trager & Jensen, Science 1976, 193 (4254), 673-5.
(§4) Compounds in Table 1 were dissolved in 70% 200-proof pharmaceutical grade ethanol, and a working solution of 0.2 mg/mL was prepared using hypoxanthine- and gentamicin-free incomplete RPMI 1640 (Gibco). Compounds in Table 2 were dissolved in 200 proof pharmaceutical grade ethanol at a concentration of 50 μM and then conjugated to BSA (Sigma) as described.^5 A working solution of 0.2 mg/mL was prepared using hypoxanthine- and gentamicin-free incomplete RPMI 1640 (Gibco). Two compounds were tested per plate in triplicate starting at 0.2 mg/mL and diluted two-fold down to 0.019 μg/mL using hypoxanthine- and gentamicin-free RPMI.
(§5) Parasite inoculum was prepared by mixing parasitized blood, uninfected 0+RBCs (for P. falciparum strains) or rhesus RBCs (for P. knowlesi) and culture medium (deficient in hypoxanthine and gentamicin) to a final concentration of 1% parasitemia and 1% haematocrit. A negative control was prepared by diluting uninfected erythrocytes to 1% haematocrit in culture medium. [^3H]-labeled hypoxanthine was added at 24 h (for P. falciparum strains) or 12 h (P. knowlesi) and the culture was collected 48 h or 12 h later for P. falciparum or P. knowlesi, respectively. [^3H] uptake was measured by using a scintillation spectrophotometer (Wallac Oy 1450 MicroBeta reader).
(§6) Triplicate wells were used to calculate the IC50 for each compound using the software XLFit v5.2 using the sigmoidal model 601. Average and standard deviations were calculated using Microsoft Excel.

Test [4] concerns P. falciparum chloroquine resistant (CQ-R) W2 strain. As to the kind of experiment: [3H]-labeled hypoxanthine uptake assay, P. falciparum W2. The settings on record: for IC50: Plasmodium falciparum; for IC50 W2: Table 1.
Text: as §2, §3, §4, §5, §6

The subject of test [5] is P. knowlesi H strain. As to the kind of experiment: [3H]-labeled hypoxanthine uptake assay, P. knowlesi. The settings on record: Table 1, compounds dissolved in 70% ethanol, not BSA-conjugated; for IC50: Plasmodium knowlesi.
Text: The [^3H]-labeled hypoxanthine uptake method was utilized to assay the effectiveness of our sphingoid base analogs in vitro for their ability to inhibit the growth and replication of malaria parasites in RBCs. […] The simian malaria parasite P. knowlesi has also been recognized as a human pathogen of public health concern in South East Asia, and it can be cultured effectively in vitro. This species was therefore included to probe the potential of multi-species efficacy within this compound class. The data were generated with the known antimalarial drugs chloroquine and mefloquine as controls.
The H strain of P. knowlesi has been adapted to in vitro culture using Macaca mulatta (rhesus monkey) RBCs essentially as described in Kocken et al., Infect Immun 2002, 70 (2), 655-60 (the media was supplemented with 10% human AB serum).
Chloroquine (Sigma) and mefloquine (Sigma) were used as controls. Compounds in Table 1 were dissolved in 70% 200-proof pharmaceutical grade ethanol, and a working solution of 0.2 mg/mL was prepared using hypoxanthine- and gentamicin-free incomplete RPMI 1640 (Gibco). Compounds in Table 2 were dissolved in 200 proof pharmaceutical grade ethanol at a concentration of 50 μM and then conjugated to BSA (Sigma) as described.^5 A working solution of 0.2 mg/mL was prepared using hypoxanthine- and gentamicin-free incomplete RPMI 1640 (Gibco). Two compounds were tested per plate in triplicate starting at 0.2 mg/mL and diluted two-fold down to 0.019 μg/mL using hypoxanthine- and gentamicin-free RPMI.
as §5, §6

[6] abbreviates: D6, Table 2, compounds conjugated to BSA, read-out: IC50 D6.
Setting [7] is: W2, Table 2, compounds conjugated to BSA, read-out: IC50 W2.
[8] abbreviates: D6, Table 1, compounds dissolved in 70% ethanol, not BSA-conjugated, read-out: IC50 D6.
Where [9] appears, read: W2, Table 1, compounds dissolved in 70% ethanol, not BSA-conjugated, read-out: IC50 W2.
[10] abbreviates: compounds dissolved in 70% ethanol, not BSA-conjugated.

Like-named read-outs stand apart in the source and are kept apart here. Some results are limits rather than exact numbers.

Usually IC50 stands for the concentration at which inhibition is half-maximal. In the case of `CCCCCCCCCCCCC[C@H](O)C[C@H](O)C(C)(C)N` (racemic) [ESPD-0560, (+/−)-syn-2 amino-2-methyloctadecane-3,5-diol], the IC50 in test [1] stood at 10 µM; in test [2], 23 µM; in test [3] (setting [6]), 5.2 ± 3 µM; in test [4] (setting [7]), 4.67 ± 1 µM.

Consider `CCCCCCCCCCCCC[C@@H](O)C[C@H](O)C(C)(C)N` (racemic) [ESPD-0561, (+/−)-anti-2 amino-2-methyloctadecane-3,5-diol], for which the IC50 in test [1] stood at 10 µM; in test [2] it was 25 µM; in test [3] (setting [6]), 4.1 ± 0.7 µM; in test [4] (setting [7]), 7.43 µM.

Consider `CCCCCCCCCCCCC[C@@H](O)C[C@H](O)C1(N)CC1` (racemic) [ESPD-0859, (+/−)-anti-1-(1-aminocyclopropyl)hexadecane-1,3-diol], for which the IC50 in test [3] (setting [6]) amounted to 11.2 µM; in test [4] (setting [7]), 7.2 ± 4 µM.

Take `CCCCCCCCCCCCC[C@H](O)C[C@H](O)C1(N)CC1` (racemic) [ESPD-0860, (+/−)-syn1-(1-aminocyclopropyl)hexadecane-1,3-diol]: the figures for the IC50 in test [3] (setting [6]) and in test [4] (setting [7]) were 5.5 µM and 9.9 ± 7 µM, respectively.

`CCCCCCCCCCCCC[C@H](O)C[C@H](O)C(C)(C)NC` (racemic) [ESPD-1158, (+/−)-syn-2-methyl-2-(methylamino)octadecane-3,5-diol]: the IC50 in test [3] (setting [6]) is 0.7 ± 0.5 µM; in test [4] (setting [7]) it was 0.25 µM; in test [4] (W2, text b107, BSA-conjugated, strain not stated (matches W2 of Table 2), read-out: IC50), 0.25 µM.

For the molecule `CCN(CC)CCCC(C)Nc1ccnc2cc(Cl)ccc12` (centres unmarked) [Chloroquine, reference compound], the IC50 in test [3] (D6, read-out: IC50 D6, Table 1, compounds dissolved in 70% ethanol, not BSA-conjugated) amounted to 0.02 µM; in test [3] (D6, read-out: IC50 D6, Table 2, compounds conjugated to BSA) it was 0.011 µM; in test [4] (W2, read-out: IC50 W2, Table 1, compounds dissolved in 70% ethanol, not BSA-conjugated), 0.18 µM; in test [4] (W2, read-out: IC50 W2, Table 2, compounds conjugated to BSA) it was 0.093 µM.

Consider `CCCCCCCCCCCCC[C@@H](O)C[C@H](O)[C@H](C)N` [ESPD-0503], for which the figures for the IC50 in test [5], in test [3] (setting [8]) and in test [4] (setting [9]) were 17.6 ± 1.8 µM, 12.7 ± 1.2 µM and 8.17 ± 1.8 µM, respectively.

With `CCCCCCCCCCCCC[C@H](O)C[C@@H](O)[C@H](C)N` [ESPD-0505, (2S,3R,5S)-2-Aminooctadecane-3,5-diol], the IC50 came out at 20.3 ± 2 µM in test [5], 17.8 ± 1.1 µM in test [3] (setting [8]) and 9.22 ± 1.6 µM in test [4] (setting [9]).

In the case of `CCCCCCCCCCCCC[C@H](O)C[C@H](O)[C@H](C)NC(C)=O` [ESPD-0506, N-((2S,3S,5S)-3,5-dihydroxyoctadecan-2-yl)acetamide], the IC50 was over 58 µM in test [5], 11.1 ± 0.5 µM in test [3] (setting [8]) and 13.1 ± 3.7 µM in test [4] (setting [9]). Further, the “IC50 P. knowlesi” value in test [5] is recorded as “no activity”. Besides, in test [3] (setting [10]), the “IC50 D6” value is on record as “no activity”. For the same molecule, the “IC50 W2” value in test [4] (setting [10]) is “no activity”.

Turning to `CCCCCCCCCCCCC[C@H](O)C[C@H](O)[C@H](C)N(C)C` [ESPD-0513, (2S,3S,5S)-2-(dimethylamino)octadecane-3,5-diol], the IC50 in test [5] is 6.83 ± 0.09 µM; in test [3] (setting [8]), 7 ± 0.6 µM; in test [4] (setting [9]) it was 4.42 ± 1.1 µM.

`CCCCCCCCCCCCCCCC(=O)N[C@@H](C)[C@@H](O)C[C@@H](O)CCCCCCCCCCCCC` [ESPD-0514, N-((2S,3S,5S)-3,5-dihydroxyoctadecan-2-yl)palmitamide]: the IC50 in test [5], in test [3] (setting [8]) and in test [4] (setting [9]) was over 37 µM throughout. For the same molecule, the “IC50 P. knowlesi” value in test [5] is “no activity”. Moreover, the “IC50 D6” value in test [3] (setting [10]) is listed as “no activity”. The “IC50 W2” value in test [4] (setting [10]) is “no activity”.

As for `CCCCCCCCCCCCC[C@H](O)C[C@H](O)[C@@H]1CCCN1` [ESPD-0522, (1S,3S)-1-((S)-pyrrolidin-2-yl)hexadecane-1,3-diol], the IC50 came out at 6.25 ± 0.27 µM in test [5], 9.7 ± 1 µM in test [3] (setting [8]) and 4.39 ± 1.5 µM in test [4] (setting [9]).

On to `CCCCCCCCCCCCC[C@H](O)C[C@@H](O)[C@H](C)NC` [ESPD-0559, (2S,3R,5S)-2-(methylamino)octadecane-3,5-diol], for which the IC50 in test [3] (setting [8]) was 14.6 ± 0.64 µM; in test [4] (setting [9]) it was 8.09 ± 0.24 µM.

Regarding `CCCCCCCCCCCCCC(O)C/C(=N\O)C(C)(C)N` (centres unmarked) [ESPD-0858, (+/−,E)-2-amino-5-hydroxy-2-methyloctadecan-3-one oxime], the IC50 in test [1] was 24 µM; in test [2], 24 µM; in test [3] (setting [6]), 7.44 µM; in test [4] (setting [7]) it was 10 ± 2.7 µM.

For the molecule `C[C@H](N)[C@@H](O)C[C@@H](O)CCCCCCCCCCCCC(F)(F)F` [ESPD-01183], the IC50 in test [1] and in test [2] was 13 µM in each case.

With `C[C@H](N)[C@@H](O)C[C@@H](O)CCCCCC#CCCCCCC(F)(F)F` [ESPD-01184], the IC50 is 92 µM in test [1] and over 100 µM in test [2].

For the molecule `CCCCCCC#CCCCCC[C@H](O)C[C@H](O)[C@H](C)N` [ESPD-01185], the IC50 in test [1] and in test [2] was over 100 µM in each case.

As for `C[C@H](N)[C@@H](O)C[C@@H](O)CCCCC/C=C/CCCCCC(F)(F)F` [ESPD-01186], the IC50 was found to be 27 µM in test [1] and 14 µM in test [2].

For the molecule `CCCCCC/C=C/CCCCC[C@H](O)C[C@H](O)[C@H](C)N` [ESPD-01187], the IC50 in test [1] stood at 33 µM; in test [2], 19 µM.

With `CCCCCC/C=C\CCCCC[C@H](O)C[C@H](O)[C@H](C)N` [ESPD-01192], the IC50 in test [1] is 25 µM; in test [2], 19 µM.

As to `CCCCCCCCCCCCC(F)(F)[C@H](O)C[C@H](O)[C@H](C)N` [ESPD-01406, (2S,3S,5R)-2-amino-6,6-difluorooctadecane-3,5-diol], the IC50 in test [1] is 9 µM; in test [2], 10 µM.

Regarding `CCCCCCCCCCCCC(F)(F)[C@@H](O)C[C@H](O)[C@H](C)N` [ESPD-01407, (2S,3S,5S)-2-amino-6,6-difluorooctadecane-3,5-diol], the IC50 in test [1] amounted to 9 µM; in test [2], 10 µM.

As to `CCCCCCCCCCCCC(F)(F)[C@H](O)C[C@@H](O)[C@H](C)N` [ESPD-01408, (2S,3R,5R)-2-amino-6,6-difluorooctadecane-3,5-diol], the IC50 in test [1] stood at 9 µM; in test [2] it was 10 µM.

Turning to `CCCCCCCCCCCCC(F)(F)[C@@H](O)C[C@@H](O)[C@H](C)N` [ESPD-01409, (2S,3R,5S)-2-amino-6,6-difluorooctadecane-3,5-diol], the IC50 in test [1] and in test [2] was 10 µM each time.

As for `OC(c1cc(C(F)(F)F)nc2c(C(F)(F)F)cccc12)C1CCCCN1` (centres unmarked) [Mefloquine, reference compound], the IC50 in test [5] is 0.04 µM; in test [4] (setting [7]), 0.004 µM.
